Measured values reported in PubChem BioAssay (NCI).
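GI50 marks 50% less growth. TGI: concentration producing complete growth inhibition.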

Assays:
Assay in all cases: NCI anticancer screen, dose series, 384-well format
786-0 renal = test system: 786-0 renal
A498 renal = test system: A498 renal
A549 NSCLC = test system: A549 NSCLC
ACHN renal = test system: ACHN renal
BT-549 breast = test system: BT-549 breast
CAKI-1 renal = test system: CAKI-1 renal
CCRF-CEM leukemia = test system: CCRF-CEM leukemia
COLO 205 colon = test system: COLO 205 colon
DU-145 prostate = test system: DU-145 prostate
EKVX NSCLC = test system: EKVX NSCLC
HCC-2998 colon = test system: HCC-2998 colon
HCT-116 colon = test system: HCT-116 colon
HCT-15 colon = test system: HCT-15 colon
HL-60(TB) leukemia = test system: HL-60(TB) leukemia
HOP-62 NSCLC = test system: HOP-62 NSCLC
HOP-92 NSCLC = test system: HOP-92 NSCLC
HS 578T breast = test system: HS 578T breast
HT29 colon = test system: HT29 colon
IGROV1 ovarian = test system: IGROV1 ovarian
K-562 leukemia = test system: K-562 leukemia
KM12 colon = test system: KM12 colon
LOX IMVI melanoma = test system: LOX IMVI melanoma
M14 melanoma = test system: M14 melanoma
MALME-3M melanoma = test system: MALME-3M melanoma
MCF7 breast = test system: MCF7 breast
MDA-MB-231 breast = test system: MDA-MB-231 breast
MDA-MB-435 melanoma = test system: MDA-MB-435 melanoma
MDA-MB-468 breast = test system: MDA-MB-468 breast
MOLT-4 leukemia = test system: MOLT-4 leukemia

Structure (SMILES): CCN1CCN(c2ccc(Nc3cc(N(C)C(=O)Nc4c(Cl)c(OC)cc(OC)c4Cl)ncn3)cc2)CC1
- GI50 ([…]-0 renal): 1430 nM
- TGI (786-0 renal): 2760 nM
- GI50 (A498 renal): 478 nM
- TGI (A498 renal): 1920 nM
- GI50 (A549 NSCLC): 1910 nM
- TGI (A549 NSCLC): 3850 nM
- GI50 (ACHN renal): 1400 nM
- TGI (ACHN renal): 3000 nM
- GI50 (BT-549 breast): 518 nM
- TGI (BT-549 breast): 1990 nM
- GI50 (CAKI-1 renal): 590 nM
- TGI (CAKI-1 renal): 2120 nM
- GI50 (CCRF-CEM leukemia): 1580 nM
- TGI (CCRF-CEM leukemia): 2950 nM
- GI50 (COLO 205 colon): 1940 nM
- TGI (COLO 205 colon): 3440 nM
- GI50 (DU-145 prostate): 1760 nM
- TGI (DU-145 prostate): 5320 nM
- GI50 (EKVX NSCLC): 1190 nM
- TGI (EKVX NSCLC): 2930 nM
- GI50 (HCC-2998 colon): 1920 nM
- TGI (HCC-2998 colon): 3890 nM
- GI50 (HCT-116 colon): 1440 nM
- TGI (HCT-116 colon): 2800 nM
- GI50 (HCT-15 colon): 688 nM
- TGI (HCT-15 colon): 2390 nM
- GI50 (HL-60(TB) leukemia): 1880 nM
- TGI (HL-60(TB) leukemia): 3300 nM
- GI50 (HOP-62 NSCLC): 1910 nM
- TGI (HOP-62 NSCLC): 3930 nM
- GI50 (HOP-92 NSCLC): 1700 nM
- TGI (HOP-92 NSCLC): 3360 nM
- GI50 (HS 578T breast): 1190 nM
- TGI (HS 578T breast): 2500 nM
- GI50 (HT29 colon): 756 nM
- TGI (HT29 colon): 2020 nM
- GI50 (IGROV1 ovarian): 273 nM
- TGI (IGROV1 ovarian): 702 nM
- GI50 (K-562 leukemia): 430 nM
- TGI (K-562 leukemia): 1480 nM
- GI50 (KM12 colon): 2230 nM
- TGI (KM12 colon): 4300 nM
- GI50 (LOX IMVI melanoma): 1660 nM
- TGI (LOX IMVI melanoma): 3060 nM
- GI50 (M14 melanoma): 1390 nM
- TGI (M14 melanoma): 2690 nM
- GI50 (MALME-3M melanoma): 1470 nM
- TGI (MALME-3M melanoma): 2800 nM
- GI50 (MCF7 breast): 1410 nM
- TGI (MCF7 breast): 2950 nM
- GI50 (MDA-MB-231 breast): 2130 nM
- TGI (MDA-MB-231 breast): 4720 nM
- GI50 (MDA-MB-435 melanoma): 1880 nM
- TGI (MDA-MB-435 melanoma): 3340 nM
- GI50 (MDA-MB-468 breast): 1290 nM
- TGI (MDA-MB-468 breast): 2610 nM
- GI50 (MOLT-4 leukemia): 1170 nM
- TGI (MOLT-4 leukemia): 2390 nM
